From the supplement of paper PMC10883282

How the values were obtained:
Test in all cases: relative viability vs DMSO control (72 h) (fraction); higher = more viable cells
[1] = test system: RD-ES
Outline: (§1)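 ATPLite readings, expressed as percent growth and averaged over up to triplicate wells, provided relative viability. Before reading, sarcoma cell lines seeded in 384-well plates to reach 80–90% confluence received 2.5 µl of serially diluted compound after 24 h, from source plates of 10 mM to 0.0002 mM. Plates were held 72 h at 37 °C, 5% CO2, with 0.1% DMSO as vehicle and a 5 µM positive control. The data were rescaled to 1 for full and 0 for none.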

[2] = test system: HS729
Outline: as §1

[3] = test system: RD
Outline: as §1

[4] = test system: HT1080
Outline: as §1

[5] = test system: SW684
Outline: as §1

[6] = test system: SW1353
Outline: as §1

[7] = test system: KHOS-240S
Outline: as §1

[8] = test system: SYO-1
Outline: as §1

[9] = test system: KHOS-NP
Outline: as §1

[10] = test system: SW872
Outline: as §1

[11] = test system: SK-LMS-1
Outline: as §1

[12] = test system: G401
Outline: as §1

Cc1c2oc3c(C)ccc(C(=O)N[C@@H]4C(=O)N[C@H](C(C)C)C(=O)N5CCC[C@H]5C(=O)N(C)CC(=O)N(C)[C@@H](C(C)C)C(=O)O[C@@H]4C)c3nc-2c(C(=O)N[C@@H]2C(=O)N[C@H](C(C)C)C(=O)N3CCC[C@H]3C(=O)N(C)CC(=O)N(C)[C@@H](C(C)C)C(=O)O[C@@H]2C)c(N)c1=O [Dactinomycin]
Conditions | relative viability
[1], 0.00017 µM | 1
[1], 0.00051 µM | 0.973
[1], 0.00152 µM | 0.943
[1], 0.00457 µM | 0.88
[1], 0.01372 µM | 0.621
[1], 0.04115 µM | 0.0824
[1], 0.1235 µM | 0.00823
[1], 0.3704 µM | -0.00353
[1], 1.111 µM | -0.00503
[1], 3.333 µM | -0.00297
[1], 10 µM | 0.00427
[2], 0.00017 µM | 0.912
[2], 0.00051 µM | 0.937
[2], 0.00152 µM | 0.884
[2], 0.00457 µM | 0.8961
[2], 0.01372 µM | 0.711
[2], 0.04115 µM | 0.128
[2], 0.1235 µM | 0.166
[2], 0.3704 µM | 0.119
[2], 1.111 µM | 0.108
[2], 3.333 µM | 0.113
[2], 10 µM | 0.132
[3], 0.00017 µM | 1.09
[3], 0.00051 µM | 1.12
[3], 0.00152 µM | 1.071
[3], 0.00457 µM | 0.811
[3], 0.01372 µM | 0.64
[3], 0.04115 µM | 0.21
[3], 0.1235 µM | 0.0929
[3], 0.3704 µM | 0.108
[3], 1.111 µM | 0.0875
[3], 3.333 µM | 0.0715
[3], 10 µM | 0.0653
[4], 0.00017 µM | 1.02
[4], 0.00051 µM | 1.04
[4], 0.00152 µM | 0.9913
[4], 0.00457 µM | 0.712
[4], 0.01372 µM | 0.553
[4], 0.04115 µM | 0.391
[4], 0.1235 µM | 0.185
[4], 0.3704 µM | 0.171
[4], 1.111 µM | 0.137
[4], 3.333 µM | 0.128
[4], 10 µM | 0.129
[5], 0.00017 µM | 1.13
[5], 0.00051 µM | 1.16
[5], 0.00152 µM | 1.09
[5], 0.00457 µM | 0.992
[5], 0.01372 µM | 0.835
[5], 0.04115 µM | 0.687
[5], 0.1235 µM | 0.763
[5], 0.3704 µM | 0.775
[5], 1.111 µM | 0.795
[5], 3.333 µM | 0.816
[5], 10 µM | 0.766
[6], 0.00017 µM | 0.971
[6], 0.00051 µM | 0.946
[6], 0.00152 µM | 0.834
[6], 0.00457 µM | 0.71
[6], 0.01372 µM | 0.62
[6], 0.04115 µM | 0.272
[6], 0.1235 µM | 0.242
[6], 0.3704 µM | 0.215
[6], 1.111 µM | 0.183
[6], 3.333 µM | 0.15
[6], 10 µM | 0.1334
[7], 0.00017 µM | 1.04
[7], 0.00051 µM | 1.06
[7], 0.00152 µM | 0.864
[7], 0.00457 µM | 0.73
[7], 0.01372 µM | 0.499
[7], 0.04115 µM | 0.202
[7], 0.1235 µM | 0.0803
[7], 0.3704 µM | 0.0989
[7], 1.111 µM | 0.0816
[7], 3.333 µM | 0.0805
[7], 10 µM | 0.0884
[8], 0.00017 µM | 0.883
[8], 0.00051 µM | 0.888
[8], 0.00152 µM | 0.606
[8], 0.00457 µM | 0.327
[8], 0.01372 µM | 0.259
[8], 0.04115 µM | 0.249
[8], 0.1235 µM | 0.239
[8], 0.3704 µM | 0.29
[8], 1.111 µM | 0.292
[8], 3.333 µM | 0.298
[8], 10 µM | 0.28
[9], 0.00017 µM | 1.06
[9], 0.00051 µM | 1.07
[9], 0.00152 µM | 1.08
[9], 0.00457 µM | 1.04
[9], 0.01372 µM | 0.63
[9], 0.04115 µM | 0.24
[9], 0.1235 µM | 0.0945
[9], 0.3704 µM | 0.0744
[9], 1.111 µM | 0.0665
[9], 3.333 µM | 0.0513
[9], 10 µM | 0.0582
[10], 0.00017 µM | 0.96
[10], 0.00051 µM | 0.975
[10], 0.00152 µM | 0.992
[10], 0.00457 µM | 0.943
[10], 0.01372 µM | 0.765
[10], 0.04115 µM | 0.442
[10], 0.1235 µM | 0.171
[10], 0.3704 µM | 0.218
[10], 1.111 µM | 0.189
[10], 3.333 µM | 0.187
[10], 10 µM | 0.199
[11], 0.00017 µM | 1
[11], 0.00051 µM | 1.02
[11], 0.00152 µM | 0.994
[11], 0.00457 µM | 0.86
[11], 0.01372 µM | 0.664
[11], 0.04115 µM | 0.364
[11], 0.1235 µM | 0.292
[11], 0.3704 µM | 0.27
[11], 1.111 µM | 0.287
[11], 3.333 µM | 0.288
[11], 10 µM | 0.3
[12], 0.00017 µM | 0.948
[12], 0.00051 µM | 0.877
[12], 0.00152 µM | 0.652
[12], 0.00457 µM | 0.441
[12], 0.01372 µM | 0.279
[12], 0.04115 µM | 0.211
[12], 0.1235 µM | 0.155
[12], 0.3704 µM | 0.118
[12], 1.111 µM | 0.087
[12], 3.333 µM | 0.0667
[12], 10 µM | 0.0642

C[C@@H]1CN(C(=O)c2ccc(NC(=O)c3cc(O[C@H](C)c4c(Cl)ccc(F)c4Cl)c(N)nn3)cc2)C[C@H](C)N1 [Ensartinib]
Conditions | relative viability
[1], 0.00017 µM | 0.97
[1], 0.00051 µM | 0.951
[1], 0.00152 µM | 0.989
[1], 0.00457 µM | 0.963
[1], 0.01372 µM | 0.985
[1], 0.04115 µM | 0.974
[1], 0.1235 µM | 0.975
[1], 0.3704 µM | 0.826
[1], 1.111 µM | 0.567
[1], 3.333 µM | 0.0894
[1], 10 µM | 0.00693
[2], 0.00017 µM | 0.96
[2], 0.00051 µM | 1.02
[2], 0.00152 µM | 1.03
[2], 0.00457 µM | 1.01
[2], 0.01372 µM | 0.998
[2], 0.04115 µM | 0.986
[2], 0.1235 µM | 0.955
[2], 0.3704 µM | 0.888
[2], 1.111 µM | 0.764
[2], 3.333 µM | 0.594
[2], 10 µM | 0.207
[3], 0.00017 µM | 1.01
[3], 0.00051 µM | 1.02
[3], 0.00152 µM | 1.06
[3], 0.00457 µM | 1.06
[3], 0.01372 µM | 1.028
[3], 0.04115 µM | 1.028
[3], 0.1235 µM | 0.972
[3], 0.3704 µM | 0.9011
[3], 1.111 µM | 0.683
[3], 3.333 µM | 0.561
[3], 10 µM | 0.0738
[4], 0.00017 µM | 1.02
[4], 0.00051 µM | 1
[4], 0.00152 µM | 0.993
[4], 0.00457 µM | 1.03
[4], 0.01372 µM | 1.03
[4], 0.04115 µM | 0.9998
[4], 0.1235 µM | 1.04
[4], 0.3704 µM | 1.04
[4], 1.111 µM | 1.02
[4], 3.333 µM | 0.837
[4], 10 µM | 0.0183
[5], 0.00017 µM | 1.05
[5], 0.00051 µM | 1.02
[5], 0.00152 µM | 1.08
[5], 0.00457 µM | 1.06
[5], 0.01372 µM | 1.06
[5], 0.04115 µM | 1.07
[5], 0.1235 µM | 1.06
[5], 0.3704 µM | 1.05
[5], 1.111 µM | 0.971
[5], 3.333 µM | 0.829
[5], 10 µM | 0.113
[6], 0.00017 µM | 0.959
[6], 0.00051 µM | 0.938
[6], 0.00152 µM | 0.985
[6], 0.00457 µM | 0.956
[6], 0.01372 µM | 0.955
[6], 0.04115 µM | 0.969
[6], 0.1235 µM | 0.957
[6], 0.3704 µM | 0.966
[6], 1.111 µM | 0.955
[6], 3.333 µM | 0.77
[6], 10 µM | 0.0145
[7], 0.00017 µM | 0.995
[7], 0.00051 µM | 1.02
[7], 0.00152 µM | 1.02
[7], 0.00457 µM | 1
[7], 0.01372 µM | 1.03
[7], 0.04115 µM | 1.02
[7], 0.1235 µM | 1.01
[7], 0.3704 µM | 0.994
[7], 1.111 µM | 0.847
[7], 3.333 µM | 0.579
[7], 10 µM | 0.135
[8], 0.00017 µM | 1.02
[8], 0.00051 µM | 1.01
[8], 0.00152 µM | 1
[8], 0.00457 µM | 0.997
[8], 0.01372 µM | 1.02
[8], 0.04115 µM | 0.981
[8], 0.1235 µM | 0.927
[8], 0.3704 µM | 0.91
[8], 1.111 µM | 0.6316
[8], 3.333 µM | 0.175
[8], 10 µM | -0.0432
[9], 0.00017 µM | 1.02
[9], 0.00051 µM | 1.04
[9], 0.00152 µM | 1.03
[9], 0.00457 µM | 1.03
[9], 0.01372 µM | 1.04
[9], 0.04115 µM | 1.03
[9], 0.1235 µM | 1.03
[9], 0.3704 µM | 1.03
[9], 1.111 µM | 1.02
[9], 3.333 µM | 0.987
[9], 10 µM | 0.422
[10], 0.00017 µM | 1.02
[10], 0.00051 µM | 1.03
[10], 0.00152 µM | 1.04
[10], 0.00457 µM | 1.05
[10], 0.01372 µM | 1.06
[10], 0.04115 µM | 1.04
[10], 0.1235 µM | 1.03
[10], 0.3704 µM | 1.01
[10], 1.111 µM | 0.835
[10], 3.333 µM | 0.583
[10], 10 µM | 0.188
[11], 0.00017 µM | 0.995
[11], 0.00051 µM | 0.9982
[11], 0.00152 µM | 1.01
[11], 0.00457 µM | 1.04
[11], 0.01372 µM | 1.03
[11], 0.04115 µM | 1.02
[11], 0.1235 µM | 1.01
[11], 0.3704 µM | 0.83
[11], 1.111 µM | 0.656
[11], 3.333 µM | 0.53
[11], 10 µM | 0.0598
[12], 0.00017 µM | 0.954
[12], 0.00051 µM | 0.983
[12], 0.00152 µM | 0.98
[12], 0.00457 µM | 0.9873
[12], 0.01372 µM | 1.01
[12], 0.04115 µM | 1.019
[12], 0.1235 µM | 1.05
[12], 0.3704 µM | 0.946
[12], 1.111 µM | 0.771
[12], 3.333 µM | 0.49
[12], 10 µM | 0.0293
